Test system: LG0703-F948-PDC complex spheroid viability
Assay: Anticancer human tumor LG0703-F948-PDC patient-derived lung adenocarcinoma cell line growth inhibition
Details: for IC50: curve of first compound; for viability, T/C: stronger effect = lower value
Outline: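 Drug combinations with the LSD1 inhibitor iadademstat tested on tumor cells co-cultured as spheroids with endothelial cells and mesenchymal stem cells. Concentrations descended in half-log increments from clinical Cmax or 10 microM.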
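Also: spheroids exposed to agents for seven days before readout.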
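For viability, T/C in this document: 100% = DMSO vehicle control wells as normalization base.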

## CC1(C)CCC(CN2CCN(c3ccc(C(=O)NS(=O)(=O)c4ccc(NCC5CCOCC5)c([N+](=O)[O-])c4)c(Oc4cnc5[nH]ccc5c4)c3)CC2)=C(c2ccc(Cl)cc2)C1 + NC1CCC(NC2CC2c2ccccc2)CC1
Second compound 0.1 µM
  IC50: 2380 nM
Second compound 0.316 µM
  IC50: 2180 nM
Second compound 1 µM
  IC50: 2550 nM
Second compound 3.16 µM
  IC50: 2630 nM
Second compound 10 µM
  IC50: 2360 nM
Second compound 0.1 µM, first compound 0.0316 µM
  viability, T/C: 107%
Second compound 0.1 µM, first compound 0.1 µM
  viability, T/C: 90.9%
Second compound 0.1 µM, first compound 0.316 µM
  viability, T/C: 85.2%
Second compound 0.1 µM, first compound 1 µM
  viability, T/C: 99.4%
Second compound 0.1 µM, first compound 3.16 µM
  viability, T/C: 34.9%
Second compound 0.1 µM, first compound 10 µM
  viability, T/C: 2.77%
Second compound 0.316 µM, first compound 0.0316 µM
  viability, T/C: 97.3%
Second compound 0.316 µM, first compound 0.1 µM
  viability, T/C: 99.2%
Second compound 0.316 µM, first compound 0.316 µM
  viability, T/C: 102%
Second compound 0.316 µM, first compound 1 µM
  viability, T/C: 112%
Second compound 0.316 µM, first compound 3.16 µM
  viability, T/C: 24.9%
Second compound 0.316 µM, first compound 10 µM
  viability, T/C: 2.76%
Second compound 1 µM, first compound 0.0316 µM
  viability, T/C: 100%
Second compound 1 µM, first compound 0.1 µM
  viability, T/C: 119%
Second compound 1 µM, first compound 0.316 µM
  viability, T/C: 117%
Second compound 1 µM, first compound 1 µM
  viability, T/C: 103%
Second compound 1 µM, first compound 3.16 µM
  viability, T/C: 37.8%
Second compound 1 µM, first compound 10 µM
  viability, T/C: 2.92%
Second compound 3.16 µM, first compound 0.0316 µM
  viability, T/C: 126%
Second compound 3.16 µM, first compound 0.1 µM
  viability, T/C: 119%
Second compound 3.16 µM, first compound 0.316 µM
  viability, T/C: 135%
Second compound 3.16 µM, first compound 1 µM
  viability, T/C: 118%
Second compound 3.16 µM, first compound 3.16 µM
  viability, T/C: 36.9%
Second compound 3.16 µM, first compound 10 µM
  viability, T/C: 2.37%
Second compound 10 µM, first compound 0.0316 µM
  viability, T/C: 112%
Second compound 10 µM, first compound 0.1 µM
  viability, T/C: 114%
Second compound 10 µM, first compound 0.316 µM
  viability, T/C: 104%
Second compound 10 µM, first compound 1 µM
  viability, T/C: 99.1%
Second compound 10 µM, first compound 3.16 µM
  viability, T/C: 33.4%
Second compound 10 µM, first compound 10 µM
  viability, T/C: 2.95%

## CCN(c1cc(-c2ccc(CN3CCOCC3)cc2)cc(C(=O)NCc2c(C)cc(C)[nH]c2=O)c1C)C1CCOCC1 + NC1CCC(NC2CC2c2ccccc2)CC1
Second compound 0.1 µM
  IC50: > 3000 nM
Second compound 0.316 µM
  IC50: > 3000 nM
Second compound 1 µM
  IC50: > 3000 nM
Second compound 3.16 µM
  IC50: > 3000 nM
Second compound 10 µM
  IC50: > 3000 nM
Second compound 0.1 µM, first compound 0.00949 µM
  viability, T/C: 105%
Second compound 0.1 µM, first compound 0.03 µM
  viability, T/C: 106%
Second compound 0.1 µM, first compound 0.0949 µM
  viability, T/C: 96.2%
Second compound 0.1 µM, first compound 0.3 µM
  viability, T/C: 108%
Second compound 0.1 µM, first compound 0.949 µM
  viability, T/C: 119%
Second compound 0.1 µM, first compound 3 µM
  viability, T/C: 128%
Second compound 0.316 µM, first compound 0.00949 µM
  viability, T/C: 107%
Second compound 0.316 µM, first compound 0.03 µM
  viability, T/C: 130%
Second compound 0.316 µM, first compound 0.0949 µM
  viability, T/C: 106%
Second compound 0.316 µM, first compound 0.3 µM
  viability, T/C: 112%
Second compound 0.316 µM, first compound 0.949 µM
  viability, T/C: 111%
Second compound 0.316 µM, first compound 3 µM
  viability, T/C: 112%
Second compound 1 µM, first compound 0.00949 µM
  viability, T/C: 128%
Second compound 1 µM, first compound 0.03 µM
  viability, T/C: 116%
Second compound 1 µM, first compound 0.0949 µM
  viability, T/C: 113%
Second compound 1 µM, first compound 0.3 µM
  viability, T/C: 133%
Second compound 1 µM, first compound 0.949 µM
  viability, T/C: 128%
Second compound 1 µM, first compound 3 µM
  viability, T/C: 127%
Second compound 3.16 µM, first compound 0.00949 µM
  viability, T/C: 124%
Second compound 3.16 µM, first compound 0.03 µM
  viability, T/C: 131%
Second compound 3.16 µM, first compound 0.0949 µM
  viability, T/C: 144%
Second compound 3.16 µM, first compound 0.3 µM
  viability, T/C: 138%
Second compound 3.16 µM, first compound 0.949 µM
  viability, T/C: 121%
Second compound 3.16 µM, first compound 3 µM
  viability, T/C: 141%
Second compound 10 µM, first compound 0.00949 µM
  viability, T/C: 120%
Second compound 10 µM, first compound 0.03 µM
  viability, T/C: 131%
Second compound 10 µM, first compound 0.0949 µM
  viability, T/C: 134%
Second compound 10 µM, first compound 0.3 µM
  viability, T/C: 118%
Second compound 10 µM, first compound 0.949 µM
  viability, T/C: 118%
Second compound 10 µM, first compound 3 µM
  viability, T/C: 105%

— PubChem BioAssay AID1918952 (Molecular Pharmacology Branch, DTP, NCI, 2023)
